In patent US9156906B2, “Glycopeptides and methods of making and using them” (THE REGENTS OF THE UNIVERSITY OF CALIFORNIA, priority 2008, dated 2015):
Where a SMILES comes first, the peptide text is derived from it. Where no end group is shown, it is not given here. The star is where a group is joined. X1 = CC(=O)N[C@@H]1[C@@H](O[C@@H]2O[C@H](CO)[C@H](O)[C@H](O)[C@H]2O)[C@@H](O)[C@@H](CO)O[C@@H]1*; GalNAc = N-acetylgalactosamine (GalNAc, 2-acetamido-2-deoxy-D-galactopyranose); αGalNAc = CC(=O)N[C@@H]1[C@@H](O)[C@@H](O)[C@@H](CO)O[C@@H]1*

How the values were obtained:
[1] = system: naïve CD8+ T cells of healthy A2 donors; assay: In vitro priming of naive cytotoxic T cells from PBMC of normal A2+ donors, 51Cr release on T2 cells; type: cell-based, human; conditions: for number of specific CTL lines out of the 12, Donor 1 / number of specific CTL lines out of the 12, Donor 2 / number of specific CTL lines out of the 12, Donor 3 / number of specific CTL lines out of the 12, Donor 4 / number of specific CTL lines out of the 12, Donor 5 / number of specific CTL lines out of the 12, Donor 6 / number of specific CTL lines out of the 12, Donor 7: net specific lysis ≧20%, day 10, T2 targets 3:1 E/T; for Total number of specific CTL lines: sum over 7 donors;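 for all read-outs here: CTL lines primed by co-culturing PBMC with autologous antigen-pulsed mature dendritic cells, 12 lines per antigen, lysis net of unpulsed T2 cell background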
Experimental: Seven A2+ healthy individuals, never exposed to HBV or HIV, between ages 40 and 57, were included in the study. Autologous, antigen-pulsed, mature dendritic cells (DC) were used as antigen presenting cells (APCs) for the in vitro priming. Autologous DC were cultured with granulocyte/macrophage colony stimulating factor (GM-CSF) (kindly provided by Kirin, Japan) and interleukin (IL) 4 (Peprotech, Rocky Hill, N.J.).
DC were previously pulsed for 2 hours with glycopeptides(s) or peptide(s). Each well defined an individual CTL line.
By using the culture conditions and IL2 regimen optimized over several years in our laboratory, the large majority of the PBMC in culture are T cells at day 10. CD8+ T cells represent the majority.
T cell cultures were tested for specificity at day 10 in a ^51Cr release assay. T2 cells (A2) were used as targets at 3:1 E/T ratio. T cell lines primed in vitro with glycopeptides were tested for the ability to recognize T2 cells pulsed with the glycopeptides, or the peptide backbones, or to untreated T2 cells (background control). Peptide-primed T cell lines were also tested for their ability to respond to peptides and cross-react with the corresponding GalNAc-O-S modified sequence.
CTL lines showing a net specific lysis ≧20% were considered specific. Carbohydrate recognition was defined as a specific response to the glycopeptides, after subtracting the background and the specific response to the corresponding peptide backbone.

C57BL/6 mice = assay: Immunization of wild type C57BL/6 mice, generation of cytotoxic T cells; type: in vivo, mouse; conditions: wild type C57BL/6 mice (H-2^b)
Experimental: These studies were performed in vivo by injecting Tn-containing glycopeptides in: 1) wild type mice (C57BL/6, H-2^b); and 2) MUC1/MT double transgenic mice (H-2^b) that develop spontaneous tumors expressing the Tn carbohydrate molecule within 12 weeks of age.

[2] = system: β-Gal-[1->3]-α-GalNAc-O-specific T cell clones; assay: 51Cr release cytotoxicity assay with TF-specific CTL clones on antigen-pulsed EL-4 targets (fine specificity, cross-reactivity); type: cell-based, mouse; conditions: clones B1, C3, D4, 5:1 E/T
Experimental: CTL clones were generated in C57BL/6 mice (H-2^b) immunized with a K^b-restricted designer alanine-rich glycopeptide sequence that contained TF, sequence: • AIIA(β-Gal-[1->3]-α-GalNAc-O-serine)FAAL
TF-specific CTL clones were tested for the capacity to cross-react to a glycopeptide with a completely unrelated sequence but carrying the sugar at the same position (5 within a 9mer). For this analysis, we designed a modified Sendai virus immunodominant epitope NP 324-332 (5N->5S-TF), sequence: • FAPG (β-Gal-[1->3]-α-GalNAc-O-S)YPAL This epitope is an ideal proof concept because when bonded to K^b class I MHC molecules it exposes position 5 as a major TcR contact.
To define the role of the glycosylated amino acid linker for sugar recognition by T cells, the same T cell clones were also tested for cross-reactivity to three alanine-rich glycopeptides with identical sequences as the immunogen: AIIA(β-Gal-[1->3]-α-GalNAc-O-serine)FAAL, but where TF was linked to different amino acid residues.
T cells were studied with a classic ^51Cr release cytotoxicity assay at a 5:1 effector/target (E/T) ratio. The EL-4 thymoma cell line (H-2)^b, class II MHC negative, was used as the target in these experiments. The cytolytic response to EL-4 cells in the absence of glycopeptides (background) was also assayed, and subtracted, to quantify the net specific lysis. […]

cancer patients = conditions: variety of different formulations; cited from earlier work
A2 class I MHC molecules = assay: A2 binding affinity of glycopeptides; set-up: species or system human
[3] = clear solution with no visible particulates
From the text: Solubility is defined as a clear solution with no visible particulates.

MUC1/MT transgenic mice = assay: Glycopeptide vaccination of tumor bearing MUC1/MT transgenic mice, CTL activity by 51Cr release on EL-4; conditions: MUC1/MT mice 14, 18, 24 weeks old; glycopeptide in IFA; EL-4 targets
Experimental: In these experiments, MUC1/MT mice have been chosen according to age and tumor development.
Seven days after priming, mice were sacrificed. Splenocytes from each experimental group were pooled and stimulated in vitro in the presence of the glycopeptide that was used as immunogen and irradiated B cell blasts as antigen presenting cells (APCs). After 5 days in culture, cells were collected, purified over Ficoll gradient, and T cell blasts were cultured in complete RPMI conditioned with supernatant from ConA-activated splenocytes as an IL2 source. Two days later (day 7 in culture) T cells were tested for CTL activity.
Carbohydrate and peptide specificity were studied in a standard ^51Cr release assay using the lymphoma EL-4 (H-2^b) cell line as target at different effector: target ratios (E/T) in duplicate, with and without antigens. […] Net specific lysis has been calculated by subtracting the cytolytic response to EL-4 cells alone without antigens defined as background. Data were calculated as % cytotoxicity=[(sample-spontaneous release)/(maximum release-spontaneous release)]×100.
Specificity of primary CTL cultures tested in a ^51Cr release assay is shown. […] EL-4 cells plated with T cell blasts in the absence of antigens have been assessed in duplicate at every E/T ratio to determine the extent of non-specific lysis. […]

CC(=O)N[C@H]1[C@@H](OC[C@H](NC(=O)[C@@H]2CCCN2C(=O)[C@H](CC(C)C)NC(=O)[C@@H](N)Cc2ccccc2)C(=O)N[C@@H](CC(=O)O)C(=O)N[C@@H](Cc2ccccc2)C(=O)N[C@@H](Cc2ccccc2)C(=O)N2CCC[C@H]2C(=O)N[C@@H](CO)C(=O)N[C@H](C(=O)O)C(C)C)O[C@H](CO)[C@H](O)[C@@H]1O
number of specific CTL lines out of the 12, Donor 1 [1]: 5
number of specific CTL lines out of the 12, Donor 2 [1]: 5
number of specific CTL lines out of the 12, Donor 3 [1]: 1
number of specific CTL lines out of the 12, Donor 4 [1]: 3
number of specific CTL lines out of the 12, Donor 5 [1]: 4
number of specific CTL lines out of the 12, Donor 6 [1]: 2
number of specific CTL lines out of the 12, Donor 7 [1]: 4
Total number of specific CTL lines [1]: 24

CC[C@H](C)[C@H](NC(=O)[C@H](C)N)C(=O)N[C@H](C(=O)N[C@@H](C)C(=O)N[C@@H](CO[C@H]1O[C@H](CO)[C@H](O)[C@H](O[C@@H]2O[C@H](CO)[C@H](O)[C@H](O)[C@H]2O)[C@H]1NC(C)=O)C(=O)N[C@@H](Cc1ccccc1)C(=O)N[C@@H](C)C(=O)N[C@@H](C)C(=O)N[C@@H](CC(C)C)C(=O)O)[C@@H](C)CC [AIIA(β-Gal-[1->3]-α-GalNAc-O-serine)FAAL] (H-AIIAS(X1)FAAL-OH; N-terminus and C-terminus assumed)
cytotoxic T cell response generated by immunization (C57BL/6 mice): generate primary and memory TF-specific cytotoxic T cells in C57BL/6 mice in the absence of Th
cytolytic response of TF-specific CTL clones to antigen (51Cr release, net lysis) [2]: high affinity/avidity

CC(=O)N[C@H]1[C@@H](OC[C@H](NC(=O)[C@H](CO)NC(=O)[C@H](Cc2ccc(O)cc2)NC(=O)[C@H](CC(C)C)NC(=O)CN)C(=O)N[C@H](C(=O)N[C@H](C(=O)N2CCC[C@H]2C(=O)N[C@H](C(=O)O)C(C)C)C(C)C)[C@@H](C)O)O[C@H](CO)[C@H](O)[C@@H]1O [GLYS(GalNAc-O-S)TVPV]
number of specific CTL lines out of the 12, Donor 1 [1]: 6
number of specific CTL lines out of the 12, Donor 2 [1]: 2
number of specific CTL lines out of the 12, Donor 3 [1]: 1
number of specific CTL lines out of the 12, Donor 4 [1]: 1
number of specific CTL lines out of the 12, Donor 5 [1]: 4
number of specific CTL lines out of the 12, Donor 6 [1]: 4
number of specific CTL lines out of the 12, Donor 7 [1]: 2
Total number of specific CTL lines [1]: 20

FAPG (β-Gal-[1->3]-α-GalNAc-O-S)YPAL
cytolytic response of TF-specific CTL clones to antigen (51Cr release, net lysis) [2]: good cytolytic activity

CC(=O)N[C@@H]1[C@@H](O)[C@@H](O)[C@@H](CO)O[C@@H]1O [Tn, α-GalNAc]
safety and tolerability in clinical trials (cancer patients): safe and well tolerated

CC(=O)N[C@H]1[C@@H](O[C@H](C)[C@H](NC(=O)[C@H](CC(=O)O)NC(=O)[C@@H]2CCCN2C(=O)[C@H](Cc2ccccc2)NC(=O)[C@H](CC(C)C)NC(=O)[C@@H](N)Cc2ccccc2)C(=O)N[C@@H](CCCNC(=N)N)C(=O)N[C@@H](Cc2ccc(O)cc2)C(=O)N[C@H](C(=O)O)C(C)C)O[C@H](CO)[C@H](O)[C@@H]1O [FLFPD(Tn-T)RYV] (H-FLFPDT(αGalNAc)RYV-OH; N-terminus and C-terminus assumed)
A2 affinity (in words) (A2 class I MHC molecules): very high affinity
solubility when diluted in Dimethylsulfoxide (DMSO) [3]: very soluble

CC(=O)N[C@H]1[C@@H](OC[C@H](NC(=O)[C@@H](NC(=O)[C@H](CC(C)C)NC(=O)[C@@H](N)[C@@H](C)O)[C@@H](C)O)C(=O)N[C@@H](CS)C(=O)N[C@@H](CC(N)=O)C(=O)N[C@H](C(=O)N[C@@H](CO)C(=O)N[C@H](C(=O)O)C(C)C)[C@@H](C)O)O[C@H](CO)[C@H](O)[C@@H]1O [TLT(GalNAc-O-S)CNTSV] (H-TLTS(αGalNAc)CNTSV-OH; N-terminus and C-terminus assumed)
number of specific CTL lines out of the 12, Donor 1 [1]: 7
number of specific CTL lines out of the 12, Donor 2 [1]: 4
number of specific CTL lines out of the 12, Donor 3 [1]: 0
number of specific CTL lines out of the 12, Donor 4 [1]: 1
number of specific CTL lines out of the 12, Donor 5 [1]: 5
number of specific CTL lines out of the 12, Donor 6 [1]: 1
number of specific CTL lines out of the 12, Donor 7 [1]: 5
Total number of specific CTL lines [1]: 23

AIIA(GalNAc-O-S)FAAL (AIIAS(GalNAc)FAAL)
CTL activity after vaccination (MUC1/MT transgenic mice): Strong CTL activity

CC(=O)N[C@H]1[C@@H](O[C@H](C)[C@H](NC(=O)[C@H](CC(=O)O)NC(=O)[C@@H]2CCCN2C(=O)[C@H](CC(C)C)NC(=O)[C@@H](N)Cc2ccccc2)C(=O)N[C@@H](CCCNC(=N)N)C(=O)N[C@@H](Cc2ccccc2)C(=O)N[C@@H](Cc2ccc(O)cc2)C(=O)N[C@H](C(=O)O)C(C)C)O[C@H](CO)[C@H](O)[C@@H]1O [FLPD(GalNAc-T)RFYV] (H-FLPDT(αGalNAc)RFYV-OH; N-terminus and C-terminus assumed)
A2 affinity (in words) (A2 class I MHC molecules): very high affinity
solubility when diluted in Dimethylsulfoxide (DMSO) [3]: very soluble

CC(=O)N[C@H]1[C@@H](OC[C@H](NC(=O)[C@H](C)NC(=O)[C@H](CC(C)C)NC(=O)[C@H](C)N)C(=O)N[C@@H](C)C(=O)N[C@@H](C)C(=O)N[C@@H](C)C(=O)N[C@@H](C)C(=O)N[C@H](C(=O)O)C(C)C)O[C@H](CO)[C@H](O)[C@@H]1O [ALA(GALNAc-O-S)SAAAAV]
A2 affinity (in words) (A2 class I MHC molecules): affinity slightly higher than the corresponding peptide but still efficiently

CC(=O)N[C@H]1[C@@H](O[C@H](C)[C@H](NC(=O)[C@H](CC(=O)O)NC(=O)[C@@H]2CCCN2C(=O)[C@H](Cc2ccccc2)NC(=O)[C@H](CC(C)C)NC(=O)[C@@H](N)Cc2ccccc2)C(=O)N[C@@H](CCCNC(=N)N)C(=O)N[C@@H](C)C(=O)N[C@H](C(=O)O)C(C)C)O[C@H](CO)[C@H](O)[C@@H]1O [FLFPD(GalNAc-T)RAV] (H-FLFPDT(αGalNAc)RAV-OH; N-terminus and C-terminus assumed)
A2 affinity (in words) (A2 class I MHC molecules): very high affinity
solubility when diluted in Dimethylsulfoxide (DMSO) [3]: very soluble

CC(=O)N[C@H]1[C@@H](OC[C@H](NC(=O)CNC(=O)[C@H](CC(C)C)NC(=O)[C@H](C)N)C(=O)N[C@H](C(=O)N[C@@H](C)C(=O)N2CCC[C@H]2C(=O)N2CCC[C@H]2C(=O)N[C@H](C(=O)O)C(C)C)[C@@H](C)O)O[C@H](CO)[C@H](O)[C@@H]1O [ALG(Tn-S)TAPPV]
A2 affinity (in words) (A2 class I MHC molecules): very high affinity
